In patent US20260355188A1, “COMBINATION THERAPIES USING PRMT5 INHIBITORS AND BCL-2 FAMILY INHIBITORS FOR THE TREATMENT OF CANCER” (MIRATI THERAPEUTICS, INC., priority 2022, published 2026):

Key:
[1] = oral; cited from earlier work
H1437 = assay: In vitro combination synergy, H1437 (Cell-Titer Glo); type: cell-based; conditions: combined with exemplary PRMT5 inhibitor, 120 h, sum of Loewe, Bliss, HSA and ZIP scores
Experimental: A panel of MTAP-deleted cancer cell lines was assembled to determine whether combining BCL-2 family inhibitors with exemplary PRMT5 inhibitors disclosed herein results in synergistic activity.
[Assays for determining the synergy score for the pairwise combinations for each cell line were performed in triplicate. 384 or 96-well plates plus additional wells of a separate 384 or 96-well control plate for determining baseline luminescence were seeded with cells of a particular MTAP-deleted cell line in a suitable growth medium for that cell line, e.g., RPMI 1640 medium supplemented with 10% FBS and any cell line specific reagents needed for growth. The plates were incubated overnight at 37 °C in a 5% CO2 atmosphere.
To each of the designated baseline wells, Cell-Titer Glo reagent (CTG; Promega Corporation) was added to each well and the plates were incubated for 20 min shaking at room temperature. Baseline luminescence was quantitated using a BMG ClarioStar multimode plate reader according to the manufacturer's instructions.
A series of 1000× drug dilutions in 100% DMSO was prepared that includes a 9-point single agent 3-fold dilution of the exemplary PRMT5 inhibitor (of the type described in WO2021/050915) with a top dose of 3000 nM (and a 6-point single agent 5-fold dilution of the BCL-2 family inhibitor with a top dose of 3000 nM as reference standards.
A 10× intermediate dosing plate was prepared in serum free medium that contains arrayed single agent dilutions of exemplary PRMT5 inhibitor (of the type described in WO2021/050915) and or the BCL-2 family inhibitor. In addition, a matrix of 54 dilution combinations of exemplary PRMT5 inhibitor (of the type described in WO2021/050915) and the BCL-2 family inhibitor was prepared as test samples.
To each corresponding well of the 384-well plates seeded with the appropriate cell line above, 10× single agent and the 54 combinations of the dose matrix was added and the plates were incubated for 120 hours at 37 °C in 5% CO2 atmosphere. Cell-Titer Glo reagent (CTG) was added to each test well, the plates were incubated for 20 min shaking at room temperature, and luminescence was quantitated using a BMG ClarioStar multimode plate reader according to the manufacturer's instructions. To normalize test samples, the determined baseline luminescence was subtracted from each test sample prior to analysis and mean values are calculated from replicate samples.
The output of the data from each mathematical model is the assignment of a relative synergy score. The data reported in Table 6 are the aggregate sum of the Loewe additivity, Bliss independence, Highest Single Agent and ZIP synergy scores (“Composite Synergy Score”).

| SMILES | bioavailable when administered orally [1] | Composite Synergy Score (H1437) |
| --- | --- | --- |
| Cc1c(-c2ccc(N3CCc4cccc(C(=O)Nc5nc6ccccc6s5)c4C3)nc2C(=O)O)cnn1CC12CC3CC(CC(C3)C1)C2 [A-1331852] | known to be bioavailable when administered orally | 36 |
| CC1(C)CCC(c2ccc(Cl)cc2)=C(CN2CCN(c3ccc(C(=O)NS(=O)(=O)c4ccc(N[C@H](CCN5CCOCC5)CSc5ccccc5)c(S(=O)(=O)C(F)(F)F)c4)cc3)CC2)C1 [ABT-263, navitoclax] | – | 13 |
